IC50 data for 52 compounds are collected here from patent publication US20230127046A1, “G9a INHIBITOR” (RIKEN, priority 2019, published 2023).

Like-named read-outs stand apart in the source and are kept apart here. Some results are limits rather than exact numbers.

This assay addresses T1, recombinant human G9a protein (Homo sapiens, UniProt Q96KQ7).
T1 construct: purchased BPS Bioscience Inc. #51001
T1 sequence (Q96KQ7 785-1210 limits assumed): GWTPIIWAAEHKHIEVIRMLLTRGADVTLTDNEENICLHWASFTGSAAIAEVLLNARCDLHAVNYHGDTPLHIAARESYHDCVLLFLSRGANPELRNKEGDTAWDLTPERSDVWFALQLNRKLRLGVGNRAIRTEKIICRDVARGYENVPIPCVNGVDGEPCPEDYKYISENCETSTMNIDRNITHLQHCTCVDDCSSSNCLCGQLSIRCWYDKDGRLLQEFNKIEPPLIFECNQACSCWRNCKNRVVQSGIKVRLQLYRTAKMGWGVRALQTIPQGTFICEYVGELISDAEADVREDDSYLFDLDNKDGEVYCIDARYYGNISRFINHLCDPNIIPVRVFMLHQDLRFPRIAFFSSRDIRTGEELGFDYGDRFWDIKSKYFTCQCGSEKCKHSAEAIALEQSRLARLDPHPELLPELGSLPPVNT
Briefly: G9a inhibitory activity test (ALPHA). The format is biochemical. Put shortly:
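Human G9a (0.05 to 0.1 nM) in Tris pH 9.0 buffer preincubated with compound 10 min, then biotinylated histone H3 (1-21) peptide and SAM mixed 1:1 from 500 nM and 150 μM solutions, 1 h at room temperature. H3K9me2 detected by AlphaLISA acceptor/streptavidin donor beads; IC50 from percent inhibition relative to no-compound and no-enzyme controls.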

Setting [1] is: biotinylated histone H3 peptide (1-21), SAM, read-out: Inhibitory activity (G9a IC50 value).
Where [2] appears, read: read-out: Inhibitory activity (G9a IC50).

A word on the IC50: it is the concentration needed to halve the response being measured. `Cc1ccc2c(c1)N(C(=O)C(CCC1CC1)NC(=O)c1[nH]c3c(c1C)C(=O)CC(C)(C)C3)CC2` (stereo not shown) [Example 1-78]: the IC50 under setting [1] is no less than 0.2 µM. Regarding `COc1ccc(NC(=O)C(CCC2CC2)NC(=O)c2ccc(Nc3ccnc(C)c3)cc2)cn1` (stereo not shown) [Example 6-63], the IC50 under setting [2] was less than 0.05 µM.

For the compound `Cc1c(C(=O)NC(CCC2CC2)C(=O)N2CCc3c(OCCN4CCCC4)cccc32)[nH]c2c1C(=O)CC(C)(C)C2` (stereo not shown) [Example 1-120], under setting [2], the IC50 lay in the range of 0.05 to 0.2 µM. On the same count and under the same terms, next, `CCCCC(NC(=O)c1[nH]c2c(c1C)C(=O)CC(C)(C)C2)C(=O)NCc1ccc(CO)cc1` (stereo not shown) [Example 16, N-[1-[[4-(hydroxymethyl)phenyl]methylamino]-1-oxohexan-2-yl]-3,6,6-trimethyl-4-oxo-5,7-dihydro-1H-indole-2-carboxamide]: no less than 0.2 µM; `CCCC[C@@H](CNc1ccc(N2CCN(C)CC2)cc1)NC(=O)c1[nH]c2c(c1C)C(=O)CC(C)(C)C2` [Example 17-2]: no less than 0.2 µM. Still for that read-out and setting: next, `COc1ccc(NC(=O)C(CCC2CC2)NC(=O)c2sc(-c3ccccc3)nc2C)cn1` (stereo not shown) [Example 6-61]: no less than 0.2 µM. On the same count and under the same terms, next, `Cc1c(C(=O)NC(CCC2CC2)C(=O)N2CCc3c(O)cccc32)[nH]c2c1C(=O)CC(C)(C)C2` (stereo not shown) [Example 1-117]: no less than 0.2 µM. In the case of `CCCCC(NC(=O)c1sc(-c2cccnc2)nc1C)C(=O)Nc1ccc(OC2CCN(C)CC2)nc1` (stereo not shown) [Example 6-99], the IC50 under setting [2] was no less than 0.2 µM. The same measure, in the same setting: in the case of `CCc1cc(C#N)ncc1NC(=O)C(CCC1CC1)NC(=O)c1[nH]c2c(c1C)C(=O)CC(C)(C)C2` (stereo not shown) [Example 15-2] it was 0.05 to 0.2 µM.

On to `Cc1c(C(=O)NC(CCC2CC2)C(=O)NCc2ccccc2)[nH]c2c1C(=O)CC(C)(C)C2` (stereo not shown) [Example 6-18], for which the half-inhibitory concentration (IC50) under setting [2] was in the range of 0.05 to 0.2 µM. Still for that read-out and setting: in the case of `Cc1c(C(=O)N[C@@H](CCC2CC2)C(=O)NC2CCN(C)CC2)[nH]c2c1C(=O)CC(C)(C)C2` [Example 6-27] it was 0.05 to 0.2 µM.

Regarding `CCCCC(NC(=O)c1[nH]c2c(c1C)C(=O)CC(C)(C)C2)C(=O)NC(C)(C)c1ccccc1` (stereo not shown) [Example 1-40], the IC50 under setting [1] was no less than 0.2 µM. For the compound `Cc1c(C(=O)NC(CCC2CC2)C(=O)N2CCc3cc(CN4CCOCC4)ccc32)[nH]c2c1C(=O)CC(C)(C)C2` (stereo not shown) [Example 1-143], the IC50 under setting [2] is no less than 0.2 µM. Still for that read-out and setting: in the case of `Cc1c(C(=O)NC(CCC2CC2)C(=O)Nc2cccnc2)[nH]c2c1C(=O)CC(C)(C)C2` (stereo not shown) [Example 6-16] it was no less than 0.2 µM; in that of `Cc1c(C(=O)N[C@H](CCC2CC2)C(=O)N[C@@H](C)c2ccccc2)[nH]c2c1C(=O)CC(C)(C)C2` [Example 13-2, N-((R)-4-Cyclopropyl-1-oxo-1-(((S)-1-phenylethyl)amino)butan-2-yl)-3,6,6-trimethyl-4-oxo-4,5,6,7-tetrahydro-1H-indole-2-carboxamide], no less than 0.2 µM; in that of `Cc1c(C(=O)N[C@H](CCC2CC2)C(=O)N(C)[C@H](C)c2ccccc2)[nH]c2c1C(=O)CC(C)(C)C2` [Example 13-4], no less than 0.2 µM.

Regarding `Cc1c(C(=O)NC(CCC2CC2)C(=O)Nc2ccc(CCN(C)C)cc2)[nH]c2c1C(=O)CC(C)(C)C2` (stereo not shown) [Example 1-139], the IC50 under setting [2] is less than 0.05 µM. Regarding `CCCCC(NC(=O)c1[nH]c2c(c1C)C(=O)CC(C)(C)C2)C(=O)Nc1cccc(C(=O)OC)c1C` (stereo not shown) [Example 1-106], the IC50 under setting [1] was no less than 0.2 µM.

On to `CCCCC(NC(=O)c1[nH]c2c(c1C)C(=O)CC(C)(C)C2)C(=O)Nc1ccc(OCCNC)nc1` (stereo not shown) [Example 24-1, 3,6,6-trimethyl-N-[1-[[6-[2-(methylamino)ethoxy]pyridin-3-yl]amino]-1-oxohexan-2-yl]-4-oxo-5,7-dihydro-1H-indole-2-carboxamide], for which the concentration for half-maximal inhibition (IC50) under setting [2] fell in the range of 0.05 to 0.2 µM.

As for `CCCCC(NC(=O)c1[nH]c2c(c1C)C(=O)CC(C)(C)C2)C(=O)Nc1cccc2ncccc12` (stereo not shown) [Example 1-14], under setting [1], the IC50 was no less than 0.2 µM. Turning to `COc1ccc(NC(=O)C(CCC2CC2)NC(=O)c2ccc(C3CCN(C)CC3)cc2)cn1` (stereo not shown) [Example 6-69], under setting [2], the IC50 is no less than 0.2 µM. Same read-out and setting: next, `Cc1c(C(=O)NC(CCC2CC2)C(=O)Nc2cccc(CN(C)C)c2)[nH]c2c1C(=O)CC(C)(C)C2` (stereo not shown) [Example 1-137]: less than 0.05 µM. Still for that read-out and setting: next, `CCCCC(NC(=O)c1[nH]c2c(c1C)C(=O)CC(C)(C)C2)C(=O)Nc1ccc2c(c1)CCNC2` (stereo not shown) [Example 25-2]: 0.05 to 0.2 µM; `CCCCC(NC(=O)c1[nH]c2c(c1C)C(=O)CC(C)(C)C2)C(=O)NCc1ccc(CN(CC)CC)cc1` (stereo not shown) [Example 18-12]: less than 0.05 µM.

On to `CCCCC(NC(=O)C(c1ccccc1)c1ccccc1)C(=O)Nc1ccc(OC2CCN(C)CC2)nc1` (stereo not shown) [Example 12-1, 2-[(2,2-diphenylacetyl)amino]-N-[6-(1-methylpiperidin-4-yl)oxypyridin-3-yl]hexane amide], for which, under setting [2], the IC50 lay within 0.05 to 0.2 µM.

As to `CCCCC(NC(=O)c1[nH]c2c(c1C)C(=O)CC(C)(C)C2)C(=O)NC1CCC(N(C)C)CC1` (stereo not shown) [Example 1-112], under setting [2], the IC50 was no less than 0.2 µM. Regarding `Cc1c(C(=O)NC(CCC2CC2)C(=O)N2CCc3c(OCCN4CCCCC4)cccc32)[nH]c2c1C(=O)CC(C)(C)C2` (stereo not shown) [Example 1-123], the IC50 under setting [2] is 0.05 to 0.2 µM. The same measure, in the same setting: next, `CCCC[C@H](NC(=O)c1[nH]c2c(c1C)C(=O)CC(C)(C)C2)c1nc2ccc(OCCCN3CCOCC3)cc2[nH]1` [Example 34-3]: no less than 0.2 µM; `O=C(NC(CCC1CC1)C(=O)Nc1ccc(C(F)(F)F)nc1)c1ccc(Nc2ccncc2)cc1` (stereo not shown) [Example 6-81]: less than 0.05 µM; `Cc1c(C(=O)NC(CCC2CC2)c2nc3cccc(C)c3n2C)[nH]c2c1C(=O)CC(C)(C)C2` (stereo not shown) [Example 30-2]: 0.05 to 0.2 µM. `CCCCC(NC(=O)c1[nH]c2c(c1C)C(=O)CC(C)(C)C2)C(=O)Nc1ccnn1CC` (stereo not shown) [Example 1-17]: the IC50 under setting [1] was no less than 0.2 µM. As for `CCCC[C@H](NC(=O)c1[nH]c2c(c1C)C(=O)CC(C)(C)C2)c1nc2ccc(OCCN(C)C)cc2[nH]1` [Example 37-4], the IC50 under setting [2] is no less than 0.2 µM. Regarding `CCCCC(NC(=O)c1[nH]c2c(c1C)C(=O)CC(C)(C)C2)C(=O)Nc1ccc(CN2CCCC2)cc1` (stereo not shown) [Example 1-98], the IC50 under setting [1] was less than 0.05 µM. The same measure, in the same setting: in the case of `CCCCC(NC(=O)c1[nH]c2c(c1C)C(=O)CC(C)(C)C2)C(=O)Nc1ccccc1CC` (stereo not shown) [Example 1-23] it was 0.05 to 0.2 µM.

Take `CCCC[C@H](NC(=O)c1[nH]c2c(c1C)C(=O)CC(C)(C)C2)C(=O)NC(c1ccccc1)C(C)C` (stereo partly shown) [Example 6-47]: the IC50 under setting [2] was less than 0.05 µM. On the same count and under the same terms, next, `CCCC[C@H](NC(=O)c1[nH]c2c(c1C)C(=O)CC(C)(C)C2)C(=O)N1CCc2c(OCCN3CCCCC3)cccc21` [Example 6-104]: no less than 0.2 µM; `CCCCC(NC(=O)c1[nH]c2c(c1C)C(=O)CC(C)(C)C2)C(=O)Nc1cccc(CN2CCC(F)CC2)c1` (stereo not shown) [Example 18-2]: less than 0.05 µM; `N#Cc1ccc(NC(=O)C(CCC2CC2)NC(=O)c2ccc(Nc3ccncc3)cc2)cn1` (stereo not shown) [Example 6-82]: less than 0.05 µM. Take `CCCCC(NC(=O)c1[nH]c2c(c1C)C(=O)CC(C)(C)C2)C(=O)Nc1cccc(Cl)c1C` (stereo not shown) [Example 1-30]: under setting [1], the 50% inhibitory concentration (IC50) is no less than 0.2 µM.

Regarding `CCCCC(NC(=O)c1[nH]c2c(c1C)C(=O)CC(C)(C)C2)C(=O)Nc1nn(CC)c2ccccc12` (stereo not shown) [Example 1-97], the IC50 under setting [1] was no less than 0.2 µM. Turning to `Cc1c(C(=O)NC(CCC2CC2)C(=O)Nc2ccc(CN(C)C)cc2)[nH]c2c1C(=O)CC(C)(C)C2` (stereo not shown) [Example 1-138], under setting [2], the half-inhibitory concentration (IC50) was less than 0.05 µM. Still for that read-out and setting: next, `Cc1cc(Nc2ccncc2)ccc1C(=O)NC(CCC1CC1)C(=O)Nc1ccc(C#N)nc1` (stereo not shown) [Example 6-84]: less than 0.05 µM; `Cc1c(C(=O)NC(CCC2CC2)C(=O)N2CCc3cc(CN(C)C)ccc32)[nH]c2c1C(=O)CC(C)(C)C2` (stereo not shown) [Example 1-125]: no less than 0.2 µM. For `CCCCC(NC(=O)c1[nH]c2c(c1C)C(=O)CC(C)(C)C2)C(=O)NCc1cccc(N2CCN(C)CC2)c1` (stereo not shown) [Example 1-92], under setting [1], the IC50 is no less than 0.2 µM. Regarding `Cc1cc(C)c(NC(=O)C(CCC2CC2)NC(=O)c2[nH]c3c(c2C)C(=O)CC(C)(C)C3)cn1` (stereo not shown) [Example 6-14], the IC50 under setting [2] lay in the range of 0.05 to 0.2 µM. `CCCCC(NC(=O)c1[nH]c2c(c1C)C(=O)CC(C)(C)C2)C(=O)Nc1cccc2cnccc12` (stereo not shown) [Example 1-94]: the IC50 under setting [1] was no less than 0.2 µM.

With `Cc1c(C(=O)NC(CCC2CC2)c2nc3c(CN(C)C)cccc3n2C)[nH]c2c1C(=O)CC(C)(C)C2` (stereo not shown) [Example 31-3], the half-inhibitory concentration (IC50) under setting [2] is no less than 0.2 µM. Take `CCCC[C@@H](CNc1ccccc1)NC(=O)c1[nH]c2c(c1C)C(=O)CC(C)(C)C2` [Example 17-1, (S)-3,6,6-trimethyl-4-oxo-N-(1-(phenylamino)hexan-2-yl)-4,5,6,7-tetrahydro-1H-indole-2-carboxamide]: the IC50 under setting [2] is no less than 0.2 µM. On the same count and under the same terms, in the case of `CCCCC(NC(=O)c1[nH]c2c(c1C)C(=O)CC(C)(C)C2)C(=O)NCc1cccc(CN(C)CCN(C)C)n1` (stereo not shown) [Example 6-3] it was 0.05 to 0.2 µM; in that of `CCCCC(NC(=O)c1ccc(Nc2ccncc2)cc1)C(=O)Nc1ccc(OC)nc1` (stereo not shown) [Example 6-100], less than 0.05 µM. For the compound `CCc1cc(C)ccc1NC(=O)C(CCC1CC1)NC(=O)c1[nH]c2c(c1C)C(=O)CC(C)(C)C2` (stereo not shown) [Example 14-1, N-[4-cyclopropyl-1-(2-ethyl-4-methylamino)-1-oxobutan-2-yl]-3,6,6-trimethyl-4-oxo-5,7-dihydro-1H-indole-2-carboxamide], the IC50 under setting [2] was less than 0.05 µM. With `CCCCC(NC(=O)c1[nH]c2c(c1C)C(=O)CC(C)(C)C2)C(=O)Nc1cncc2ccccc12` (stereo not shown) [Example 1-15], the IC50 under setting [1] was no less than 0.2 µM.
